Key:
LS174T cells = experiment: Proliferation inhibition assay, LS174T; assay type: cell-based; settings: for inhibition at 1 µM / inhibition at 10 µM / inhibition at 0.3 µM: Homo sapiens, LS174T; for inhibition at 0.3 µM: 300 nM
Method: (§1) Cell Culture. LS174T (colon cancer cells), PC-3 (prostate cancer cells), MCF-7 (beast) and A549 (lung) were cultured in the medium recommended by American Type Culture Collection at 37° C. with 5% CO2 atmosphere in a water jacketed incubator. Ovcar-8 and NCI/ADR-RES are gifts from Dr. Markos Leggas. Alpha-tubulin antibodies, TRITC-conjugated anti-rabbit antibody.
(§2) Proliferation inhibition assay. Cancer cells were seeded into 24-well plates at a density of 20,000 cells per well in 1 mL of culture medium and cultured overnight at 37° C. Compounds and the vehicle control DMSO were added to the cells. After 6 days, medium was removed and 100 μL of trypsin was added. Then the cells resuspended in pbs were counted by Vi-CELL XR 2.03 (Beckman Coulter, Inc. USA). The ratio R of the number of viable cells in the compound treatment group to the number of viable cells in DMSO treatment group was taken as relative growth, and the percentage growth inhibition was calculated as: (1−R)*100. For initial testing, compounds were added to the cells at a final concentration 10 μM. Active compounds at 10 μM would be tested at lower concentrations.

PC-3 cells = experiment: Proliferation inhibition assay, PC-3; assay type: cell-based
Method: as §1, §2

[1] = Homo sapiens, PC-3, 1 μM, Table 1
[2] = Homo sapiens, PC-3, 10 μM, Table 1
[3] = Homo sapiens, PC-3, 300 nM, Table 2
[4] = Homo sapiens, PC-3, 1 μM, Table 2
[5] = Homo sapiens, PC-3, 10 μM, Table 2

CCn1cc(/C=C2\Oc3cc(OCc4c(Cl)cccc4Cl)ccc3C2=O)c2ccccc21 [Aurone 4q, (2Z)-6-[(2,6-Dichlorobenzyl)oxy]-2-[(1-ethyl-1H-indol-3-yl)methylene]-1-benzofuran-3(2H)-one]
melting point: 213 to 215 °C

COc1cccc2ccc(/C=C3\Oc4cc(O)ccc4C3=O)nc12 [Aurone 3g]
inhibition at 1 µM (LS174T cells; 1 μM, Table 1): 20 ± 9.1% | inhibition at 10 µM (LS174T cells; 10 μM, Table 1): 91 ± 2.4% | inhibition at 1 µM (PC-3 cells; [1]): 40 ± 8.4% | inhibition at 10 µM (PC-3 cells; [2]): 97 ± 0.8%

CCn1cc(/C=C2\Oc3cc(OCc4c(Cl)cccc4Cl)ccc3C2=O)c2ccccc21 [Aurone 4q]
inhibition at 0.3 µM (LS174T cells; Table 2): 0% | inhibition at 1 µM (LS174T cells; 1 μM, Table 2): 93 ± 2.5% | inhibition at 10 µM (LS174T cells; 10 μM, Table 2): 96% | inhibition at 0.1 µM (PC-3 cells; Homo sapiens, PC-3, 100 nM, Table 2): 17 ± 6.8% | inhibition at 0.3 µM (PC-3 cells; [3]): 75 ± 7.7% | inhibition at 1 µM (PC-3 cells; [4]): 98 ± 1% | inhibition at 10 µM (PC-3 cells; [5]): 97 ± 0.6%

CCn1cc(/C=C2\Oc3cc(OCC#N)ccc3C2=O)c2cc(O)ccc21 [Aurone 4b]
Inhibition of LS174T Cells 1 μM (LS174T cells; 1 μM, Table 2): 26 ± 15% | Inhibition of LS174T Cells 10 μM (LS174T cells; 10 μM, Table 2): 83 ± 4.8% | Inhibition of PC-3 Cells 300 nM (PC-3 cells; 300 nM, Table 2): 24 ± 11% | Inhibition of PC-3 Cells 1 μM (PC-3 cells; 1 μM, Table 2): 96 ± 2% | Inhibition of PC-3 Cells 10 μM (PC-3 cells; 10 μM, Table 2): 96 ± 1.6%

Cn1cc(/C=C2\Oc3cc(O)ccc3C2=O)c2ccccc21 [Aurone 3j]
inhibition at 10 µM (LS174T cells; 10 μM, Table 1): 54 ± 15% | inhibition at 10 µM (PC-3 cells; [2]): 41 ± 25%

O=C1/C(=C/c2ccnc3ccccc23)Oc2cc(O)ccc21 [Aurone 3h, (2Z)-6-Hydroxy-2-(quinolin-4-ylmethylene)-1-benzofuran-3(2H)-one]
melting point: 278 to 280 °C

COc1ccc2c(c1)c(/C=C1\Oc3c(ccc(OCc4c(Cl)cccc4Cl)c3C)C1=O)cn2C [Aurone 4m, (2Z)-6-[(2,6-Dichlorobenzyl)oxy]-2-[(5-methoxy-1-methyl-1H-indol-3-yl)methylene]-7-methyl-1-benzofuran-3(2H)-one]
melting point: 241 to 243 °C

O=C1/C(=C/c2cccnc2)Oc2cc(O)ccc21 [Aurone 3b]
inhibition at 10 µM (LS174T cells; 10 μM, Table 1): 11 ± 3.6% | inhibition at 10 µM (PC-3 cells; [2]): 0%

Cn1cc(/C=C2\Oc3cc(OCc4c(Cl)cccc4Cl)ccc3C2=O)c2ccccc21 [Aurone 4g, (2Z)-6-[(2,6-Dichlorobenzyl)oxy]-2-[(1-methyl-1H-indol-3-yl)methylene]-1-benzofuran-3(2H)-one]
melting point: 247 to 249 °C

CCn1cc(/C=C2\Oc3cc(O)ccc3C2=O)c2ccccc21 [Aurone 3m, (2Z)-2-[(1-Ethyl-1H-indol-3-yl)methylene]-6-hydroxy-1-benzofuran-3(2H)-one]
melting point: 278 to 280 °C

CCn1cc(/C=C2\Oc3cc(OCc4c(F)cccc4Cl)ccc3C2=O)c2ccccc21 [Aurone 4p, (2Z)-6-[(2-Chloro-6-fluorobenzyl)oxy]-2-[(1-ethyl-1H-indol-3-yl)methylene]-1-benzofuran-3(2H)-one]
melting point: 198 to 200 °C

COc1ccc2c(c1)c(/C=C1\Oc3cc(OCc4c(F)cccc4Cl)ccc3C1=O)cn2C [Aurone 4k]
inhibition at 10 µM (LS174T cells; 10 μM, Table 2): 53 ± 8.9% | inhibition at 10 µM (PC-3 cells; [5]): 57 ± 18%

O=C1/C(=C/c2ccccn2)Oc2cc(O)ccc21 [Aurone 3a]
inhibition at 10 µM (LS174T cells; 10 μM, Table 1): 0% | inhibition at 10 µM (PC-3 cells; [2]): 8.8 ± 15%

O=C1/C(=C/c2cccnc2)Oc2cc(O)ccc21 [Aurone 3b, (2Z)-6-Hydroxy-2-(pyridin-3-ylmethylene)-1-benzofuran-3(2H)-one]
melting point: 255 to 257 °C

Cc1c(OCc2c(Cl)cccc2Cl)ccc2c1O/C(=C\c1cn(C)c3ccccc13)C2=O [Aurone 4i, (2Z)-6-[(2,6-Dichlorobenzyl)oxy]-7-methyl-2-[(1-methyl-1H-indol-3-yl)methylene]-1-benzofuran-3(2H)-one]
melting point: 232 to 234 °C

CCN(CC)c1ccc(/C=C2\Oc3cc(O)ccc3C2=O)c(OC)c1 [Aurone 2f, (2Z)-2-[4-(Diethylamino)-2-methoxybenzylidene]-6-hydroxy-1-benzofuran-3(2H)-one]
melting point: > 220 °C

CCn1cc(/C=C2\Oc3cc(OCc4c(Cl)cccc4Cl)ccc3C2=O)c2cc(OC)ccc21 [Aurone 4o]
inhibition at 0.3 µM (LS174T cells; Table 2): 3.3 ± 24% | inhibition at 1 µM (LS174T cells; 1 μM, Table 2): 7.3 ± 18% | inhibition at 10 µM (LS174T cells; 10 μM, Table 2): 94 ± 1.7% | inhibition at 0.3 µM (PC-3 cells; [3]): 3.9 ± 11% | inhibition at 1 µM (PC-3 cells; [4]): 67 ± 5.8% | inhibition at 10 µM (PC-3 cells; [5]): 96 ± 1.1%

Cn1cc(/C=C2\Oc3cc(OCc4c(F)cccc4F)ccc3C2=O)c2ccccc21 [Aurone 4f]
inhibition at 10 µM (LS174T cells; 10 μM, Table 2): 0.5 ± 1.7% | inhibition at 10 µM (PC-3 cells; [5]): 82 ± 4.3%

Cn1cc(/C=C2\Oc3cc(OCc4ccccc4F)ccc3C2=O)c2ccccc21 [Aurone 4d, (2Z)-6-[(2-Fluorobenzyl)oxy]-2-[(1-methyl-1H-indol-3-yl)methylene]-1-benzofuran-3(2H)-one]
melting point: 241 to 243 °C

COc1ccc2c(c1)c(/C=C1\Oc3cc(OCc4ccc(F)cc4Cl)ccc3C1=O)cn2C [Aurone 4j, (2Z)-6-[(2-Chloro-4-fluorobenzyl)oxy]-2-[(5-methoxy-1-methyl-1H-indol-3-yl)methylene]-1-benzofuran-3(2H)-one]
melting point: 184 to 186 °C

COc1ccc2nc(/C=C3\Oc4cc(O)ccc4C3=O)ccc2c1 [Aurone 3f]
inhibition at 10 µM (LS174T cells; 10 μM, Table 1): 6.1 ± 13% | inhibition at 10 µM (PC-3 cells; [2]): 8.4 ± 33%

O=C1/C(=C/c2c[nH]c3ccccc23)Oc2cc(O)ccc21 [Aurone 3i, (2Z)-6-Hydroxy-2-(1H-indol-3-ylmethylene)-1-benzofuran-3(2H)-one]
melting point: 280 to 282 °C

COc1ccc2c(c1)c(/C=C1\Oc3cc(O)ccc3C1=O)cn2C [Aurone 3k, (2Z)-6-Hydroxy-2-[(5-methoxy-1-methyl-1H-indol-3-yl)methylene]-1-benzofuran-3(2H)-one]
melting point: 301 to 303 °C

Cn1cc(/C=C2\Oc3cc(O)ccc3C2=O)c2ccccc21 [Aurone 3j, (2Z)-6-Hydroxy-2-[(1-methyl-1H-indol-3-yl)methylene]-1-benzofuran-3(2H)-one]
melting point: 272 to 274 °C

COc1ccc2nc(/C=C3\Oc4cc(O)ccc4C3=O)ccc2c1 [Aurone 3f, (2Z)-6-Hydroxy-2-[(6-methoxyquinolin-2-yl)methylene]-1-benzofuran-3(2H)-one]
melting point: 269 to 271 °C

O=C1/C(=C/c2nccc3ccccc23)Oc2cc(O)ccc21 [Aurone 3d]
inhibition at 1 µM (LS174T cells; 1 μM, Table 1): 2.7 ± 6.4% | inhibition at 10 µM (LS174T cells; 10 μM, Table 1): 79 ± 3.6% | inhibition at 10 µM (PC-3 cells; [2]): 88 ± 5.5%

CCn1cc(/C=C2\Oc3cc(O)ccc3C2=O)c2cc(OC)ccc21 [Aurone 3l, (2Z)-2-[(1-Ethyl-5-methoxy-1H-indol-3-yl)methylene]-6-hydroxy-1-benzofuran-3(2H)-one]
melting point: 265 to 267 °C

O=C1/C(=C/c2ccc3ccccc3n2)Oc2cc(O)ccc21 [Aurone 3e, (2Z)-6-Hydroxy-2-(quinolin-2-ylmethylene)-1-benzofuran-3(2H)-one]
melting point: 249 to 251 °C

O=C1/C(=C/c2ccccn2)Oc2cc(O)ccc21 [Aurone 3a, (2Z)-6-Hydroxy-2-(pyridin-2-ylmethylene)-1-benzofuran-3(2H)-one]
melting point: 246 to 248 °C

CCn1cc(/C=C2\Oc3cc(OCc4c(F)cccc4Cl)ccc3C2=O)c2ccccc21 [Aurone 4p]
inhibition at 1 µM (LS174T cells; 1 μM, Table 2): 5.1 ± 19% | inhibition at 10 µM (LS174T cells; 10 μM, Table 2): 93 ± 3.2% | inhibition at 0.3 µM (PC-3 cells; [3]): 44 ± 5.6% | inhibition at 1 µM (PC-3 cells; [4]): 91 ± 2.2% | inhibition at 10 µM (PC-3 cells; [5]): 95 ± 4.4%

O=C1/C(=C/c2ccc3ccccc3n2)Oc2cc(O)ccc21 [Aurone 3e]
inhibition at 1 µM (LS174T cells; 1 μM, Table 1): 7.7 ± 9.9% | inhibition at 10 µM (LS174T cells; 10 μM, Table 1): 96 ± 0.9% | inhibition at 1 µM (PC-3 cells; [1]): 26 ± 8.6% | inhibition at 10 µM (PC-3 cells; [2]): 99 ± 0.2%

Cn1cc(/C=C2\Oc3cc(OCc4ccccc4Cl)ccc3C2=O)c2ccccc21 [Aurone 4e]
inhibition at 10 µM (LS174T cells; 10 μM, Table 2): 0% | inhibition at 10 µM (PC-3 cells; [5]): 20 ± 6.6%

COc1ccc2c(c1)c(/C=C1\Oc3cc(O)ccc3C1=O)cn2C [Aurone 3k]
inhibition at 1 µM (LS174T cells; 1 μM, Table 1): 13 ± 2.4% | inhibition at 10 µM (LS174T cells; 10 μM, Table 1): 63 ± 0.7% | inhibition at 1 µM (PC-3 cells; [1]): 17 ± 5.5% | inhibition at 10 µM (PC-3 cells; [2]): 35 ± 28%

O=C1/C(=C/c2ccnc3ccccc23)Oc2cc(O)ccc21 [Aurone 3h]
inhibition at 10 µM (LS174T cells; 10 μM, Table 1): 34 ± 11% | inhibition at 1 µM (PC-3 cells; [1]): 16 ± 3.5% | inhibition at 10 µM (PC-3 cells; [2]): 63 ± 7.2%

O=C1/C(=C/c2ccc(N3CCOCC3)cc2)Oc2cc(O)ccc21 [Aurone 2b]
inhibition at 10 µM (LS174T cells; 10 μM, Table 1): 0% | inhibition at 10 µM (PC-3 cells; [2]): 7.8 ± 7.7%

O=C1/C(=C/c2ccc(N3CCCC3)cc2)Oc2cc(O)ccc21 [Aurone 2a]
inhibition at 1 µM (LS174T cells; 1 μM, Table 1): 0% | inhibition at 10 µM (LS174T cells; 10 μM, Table 1): 23 ± 2.9% | inhibition at 1 µM (PC-3 cells; [1]): 2.1 ± 7.1% | inhibition at 10 µM (PC-3 cells; [2]): 95 ± 4.7%

Cn1cc(/C=C2\Oc3cc(OCc4c(F)cccc4Cl)ccc3C2=O)c2ccccc21 [Aurone 4h]
inhibition at 10 µM (LS174T cells; 10 μM, Table 2): 38 ± 2% | inhibition at 1 µM (PC-3 cells; [4]): 0% | inhibition at 10 µM (PC-3 cells; [5]): 31 ± 40%

CCn1cc(/C=C2\Oc3cc(O)ccc3C2=O)c2cc(OC)ccc21 [Aurone 3l]
inhibition at 1 µM (LS174T cells; 1 μM, Table 1): 4.5 ± 7.3% | inhibition at 10 µM (LS174T cells; 10 μM, Table 1): 83 ± 1.2% | inhibition at 1 µM (PC-3 cells; [1]): 13 ± 9.5% | inhibition at 10 µM (PC-3 cells; [2]): 69 ± 16%

CCn1cc(/C=C2\Oc3cc(OCc4ccccc4F)ccc3C2=O)c2cc(OC)ccc21 [Aurone 4n]
inhibition at 1 µM (LS174T cells; 1 μM, Table 2): 0% | inhibition at 10 µM (LS174T cells; 10 μM, Table 2): 28 ± 11% | inhibition at 1 µM (PC-3 cells; [4]): 28 ± 15% | inhibition at 10 µM (PC-3 cells; [5]): 52 ± 23%

O=C1/C(=C/c2c[nH]c3ccccc23)Oc2cc(O)ccc21 [Aurone 3i]
inhibition at 10 µM (LS174T cells; 10 μM, Table 1): 44 ± 8.6% | inhibition at 10 µM (PC-3 cells; [2]): 20 ± 6.8%

Cn1cc(/C=C2\Oc3cc(OCc4ccccc4F)ccc3C2=O)c2ccccc21 [Aurone 4d]
inhibition at 10 µM (LS174T cells; 10 μM, Table 2): 7.1 ± 17% | inhibition at 10 µM (PC-3 cells; [5]): 0%
